# ChEMBL document CHEMBL4000165, “Chemosensitizing effect of Paris Saponin I on Camptothecin and 10-hydroxycamptothecin in lung cancer cells via p38 MAPK, ERK, and Akt signaling pathways” (Eur J Med Chem, 2017)
# pIC50: −log10 of the molar value. Calls of active or inactive are those of the source. The calls are words filed in the database; no cut-off is given here.
# How the values were obtained:
# NCI-H1299 [1] = test: Cytotoxicity against human NCI-H1299 cells assessed as reduction in cell viability after 48 hrs by MTT assay; format: functional, cell-based; conditions: NCI-H1299, 48 h
# NCI-H446 [2] = test: Cytotoxicity against human NCI-H446 cells assessed as reduction in cell viability after 48 hrs by MTT assay; format: functional, cell-based; conditions: NCI-H446, 48 h
# NCI-H1299 [3] = test: Cytotoxicity against human NCI-H1299 cells assessed as reduction in cell viability by measuring combinantion index at 0.3 to 0.6 uM after 48 hrs in presence of CPT by MTT assay; format: functional
# NCI-H520 [4] = test: Cytotoxicity against human NCI-H520 cells assessed as reduction in cell viability at 0.3 to 0.6 uM after 48 hrs in presence of CPT by MTT assay; format: functional, cell-based
# NCI-H446 [5] = test: Cytotoxicity against human NCI-H446 cells assessed as reduction in cell viability by measuring combinantion index at 0.3 to 0.6 uM after 48 hrs in presence of CPT by MTT assay; format: functional
# NCI-H446 [6] = test: Cytotoxicity against human NCI-H446 cells assessed as reduction in cell viability at 0.3 to 0.6 uM after 48 hrs in presence of HCPT by MTT assay; format: functional, cell-based
# NCI-H520 [7] = test: Cytotoxicity against human NCI-H520 cells assessed as reduction in cell viability at 0.3 to 0.6 uM after 48 hrs in presence of HCPT by MTT assay; format: functional, cell-based
# NCI-H1299 [8] = test: Induction of apoptosis in human NCI-H1299 cells at 0.3 uM up to 20 mins in presence of HCPT by acridine orange/ ethidium bromide staining based fluorescence microscopic method relative to control; format: functional
# NCI-H446 [9] = test: Induction of apoptosis in human NCI-H446 cells at 0.6 uM up to 20 mins in presence of CPT by acridine orange/ ethidium bromide staining based fluorescence microscopic method relative to control; format: functional
# NCI-H460 [10] = test: Induction of apoptosis in human NCI-H460 cells at 0.6 uM after 24 to 48 hrs by Annexin-V FITC/propidium iodide staining based flow cytometry; format: functional, cell-based
# NCI-H446 [11] = test: Induction of apoptosis in human NCI-H446 cells at 0.6 uM after 24 to 48 hrs by Annexin-V FITC/propidium iodide staining based flow cytometry; format: functional, cell-based
# NCI-H1299 [12] = test: Induction of apoptosis in human NCI-H1299 cells assessed as increase in total apoptotic cells at 0.3 uM after 48 hrs in presence of CPT by Annexin-V FITC/propidium iodide staining based flow cytometry; format: functional, cell-based
# NCI-H446 [13] = test: Induction of apoptosis in human NCI-H446 cells at 0.6 uM in presence of HCPT by Annexin-V FITC/propidium iodide staining based flow cytometry; format: functional, cell-based; conditions: TDE = time-dependent effect
# NCI-H446 [14] = test: Induction of apoptosis in human NCI-H446 cells assessed as activation of caspase-3/7 at 0.6 uM after 48 hrs by luciferase reporter gene assay; format: functional, cell-based
# NCI-H460 [15] = test: Induction of apoptosis in human NCI-H460 cells assessed as activation of caspase-3/7 at 0.6 uM after 48 hrs by luciferase reporter gene assay; format: functional, cell-based
# NCI-H1299 [16] = test: Induction of apoptosis in human NCI-H1299 cells assessed as activation of caspase-3/7 at 0.3 uM after 48 hrs in presence of CPT by luciferase reporter gene assay; format: functional, cell-based
# NCI-H446 [17] = test: Induction of apoptosis in human NCI-H446 cells assessed as activation of caspase-3/7 at 0.6 uM after 48 hrs in presence of HCPT by luciferase reporter gene assay; format: functional, cell-based
# NCI-H460 [18] = test: Induction of apoptosis in human NCI-H460 cells assessed as activation of caspase-3/7 at 0.6 uM after 48 hrs in presence of HCPT by luciferase reporter gene assay; format: functional, cell-based
# NCI-H1299 [19] = test: Induction of apoptosis in human NCI-H1299 cells assessed as increase in caspase-9 expression at 0.3 uM in presence of CPT by Western blot method; format: functional, cell-based
# NCI-H460 [20] = test: Induction of apoptosis in human NCI-H460 cells assessed as increase in caspase-9 expression at 0.6 uM in presence of CPT by Western blot method; format: functional, cell-based
# NCI-H1299 [21] = test: Induction of apoptosis in human NCI-H1299 cells assessed as increase in caspase-9 expression at 0.3 uM in presence of HCPT by Western blot method; format: functional, cell-based
# NCI-H460 [22] = test: Induction of apoptosis in human NCI-H460 cells assessed as increase in caspase-9 expression at 0.6 uM in presence of HCPT by Western blot method; format: functional, cell-based
# NCI-H446 [23] = test: Induction of apoptosis in human NCI-H446 cells assessed as increase in caspase-9 expression at 0.6 uM in presence of HCPT by Western blot method; format: functional, cell-based
# NCI-H446 [24] = test: Induction of apoptosis in human NCI-H446 cells assessed as increase in cytochrome-C expression at 0.6 uM in presence of CPT by Western blot method; format: functional, cell-based
# NCI-H446 [25] = test: Induction of apoptosis in human NCI-H446 cells assessed as increase in cleaved PARP expression at 0.6 uM in presence of CPT by Western blot method; format: functional, cell-based
# NCI-H446 [26] = test: Induction of apoptosis in human NCI-H446 cells assessed as downregulation of Bcl-XL expression at 0.6 uM in presence of CPT by Western blot method; format: functional, cell-based
# NCI-H1299 [27] = test: Decrease in p38 MAPK protein expression in human NCI-H1299 cells at 0.3 uM in presence of HCPT by Western blot method; format: functional, cell-based
# [28] = target: T1, MAP kinase p38 (Homo sapiens) (UniProt O15264+Q15759+Q16539+P53778); test: Increase in p38 MAPK phosphorylation in human NCI-H1299 cells at 0.3 uM in presence of HCPT by Western blot method; format: cell-based
# NCI-H1299 [29] = test: Effect on ERK1/2 protein expression in human NCI-H1299 cells at 0.3 uM in presence of CPT by Western blot method; format: functional, cell-based
# NCI-H1299 [30] = test: Effect on ERK1/2 protein expression in human NCI-H1299 cells at 0.3 uM in presence of HCPT by Western blot method; format: functional, cell-based
# Homo sapiens [31] = organism: Homo sapiens; test: Decrease in Akt phosphorylation in human NCI-H460 cells at 0.6 uM in presence of CPT by Western blot method; format: cell-based
# [32] = target: T1, MAP kinase p38 (Homo sapiens); test: Increase in p38 MAPK phosphorylation in human NCI-H460 cells at 0.6 uM in presence of CPT by Western blot method; format: cell-based
# Homo sapiens [33] = organism: Homo sapiens; test: Effect on Akt phosphorylation in human NCI-H446 cells at 0.6 uM in presence of HCPT by Western blot method; format: cell-based
# [34] = target: Mitogen-activated protein kinase; ERK1/ERK2 (Homo sapiens) (UniProt P27361+P28482); test: Effect on ERK1/2 phosphorylation in human NCI-H446 cells at 0.6 uM in presence of CPT by Western blot method; format: cell-based
# Sequence of Mitogen-activated protein kinase; ERK1/ERK2 (Homo sapiens) (P27361 whole entry, looked up): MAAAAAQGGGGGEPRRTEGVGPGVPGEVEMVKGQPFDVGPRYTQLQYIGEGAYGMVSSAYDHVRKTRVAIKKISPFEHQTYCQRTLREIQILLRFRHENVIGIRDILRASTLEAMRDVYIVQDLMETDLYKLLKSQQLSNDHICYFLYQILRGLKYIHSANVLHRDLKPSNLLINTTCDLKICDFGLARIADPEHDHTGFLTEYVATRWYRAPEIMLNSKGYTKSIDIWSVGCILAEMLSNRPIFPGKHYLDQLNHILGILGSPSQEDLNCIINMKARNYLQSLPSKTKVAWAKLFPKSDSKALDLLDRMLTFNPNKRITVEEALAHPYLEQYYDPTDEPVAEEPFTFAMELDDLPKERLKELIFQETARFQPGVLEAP
# Sequence of Mitogen-activated protein kinase; ERK1/ERK2 (Homo sapiens) (P28482 whole entry, looked up): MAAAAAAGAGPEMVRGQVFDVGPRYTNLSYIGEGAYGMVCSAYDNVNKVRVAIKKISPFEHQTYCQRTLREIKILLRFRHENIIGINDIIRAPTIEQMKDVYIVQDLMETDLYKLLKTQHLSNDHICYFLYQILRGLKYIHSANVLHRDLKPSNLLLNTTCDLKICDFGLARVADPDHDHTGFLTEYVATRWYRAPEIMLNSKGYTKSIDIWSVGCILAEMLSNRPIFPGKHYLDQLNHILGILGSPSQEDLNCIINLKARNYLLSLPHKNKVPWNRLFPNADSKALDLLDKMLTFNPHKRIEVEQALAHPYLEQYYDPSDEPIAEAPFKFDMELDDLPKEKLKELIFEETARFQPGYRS
# NCI-H446 [35] = test: Effect on p38 MAPK protein expression in human NCI-H446 cells at 0.6 uM in presence of CPT by Western blot method; format: functional, cell-based
# [36] = target: T1, MAP kinase p38 (Homo sapiens); test: Effect on p38 MAPK phosphorylation in human NCI-H446 cells at 0.6 uM in presence of CPT by Western blot method; format: cell-based
smiles,measurement,setting,value
C[C@@H]1CC[C@@]2(OC1)O[C@H]1C[C@H]3[C@@H]4CC=C5C[C@@H](O[C@@H]6O[C@H](CO)[C@@H](O[C@@H]7O[C@@H](CO)[C@H](O)[C@H]7O)[C@H](O)[C@H]6O[C@@H]6O[C@@H](C)[C@H](O)[C@@H](O)[C@H]6O)CC[C@]5(C)[C@H]4CC[C@]3(C)[C@H]1[C@@H]2C,pIC50,NCI-H1299 [1],> 6.00
same,pIC50,NCI-H446 [2],> 6.00
same,CI,NCI-H1299 [3],<1
same,Activity,NCI-H520 [4],Active
same,CI,NCI-H446 [5],<1
same,Activity,NCI-H446 [6],Active
same,Activity,NCI-H520 [7],Active
same,fold change (FC),NCI-H1299 [8],2
same,fold change (FC),NCI-H446 [9],2
same,Activity,NCI-H460 [10],Active
same,Activity,NCI-H446 [11],Active
same,Activity,NCI-H1299 [12],Active
same,Activity,NCI-H446 [13],Tde
same,Activity,NCI-H446 [14],inactive
same,Activity,NCI-H460 [15],inactive
same,Activity,NCI-H1299 [16],Active
same,Activity,NCI-H446 [17],Active
same,Activity,NCI-H460 [18],Active
same,Activity,NCI-H1299 [19],Active
same,Activity,NCI-H460 [20],Active
same,Activity,NCI-H1299 [21],Active
same,Activity,NCI-H460 [22],Active
same,Activity,NCI-H446 [23],Active
same,Activity,NCI-H446 [24],Active
same,Activity,NCI-H446 [25],Active
same,Activity,NCI-H446 [26],Active
same,Activity,NCI-H1299 [27],Active
same,Activity,[28],Active
same,Activity,NCI-H1299 [29],inactive
same,Activity,NCI-H1299 [30],inactive
same,Activity,Homo sapiens [31],Active
same,Activity,[32],Active
same,Activity,Homo sapiens [33],Active
same,Activity,[34],Active
same,Activity,NCI-H446 [35],inactive
same,Activity,[36],inactive
